Test results taken from patent US20110195845A1, “Constructs for Expressing Herbicide Tolerance Genes, Related Plants, and Related Trait Combinations” (Dow AgroSciences LLC, priority 2008, published 2011).

What was measured:
[1] = tested on: NT-1 tobacco suspension cells treated with DSM-2 (v2) (pDAB3778); assay: NT-1 tobacco cell transformation, selection on bialaphos or glufosinate ammonium; type: cell-based; conditions: for Transformation Frequency on 10 mg/L Bialaphos following PCR Verification: % of selection plates with at least one PCR positive isolate
Method: (§1) Four days prior to transformation, a 1 week old NT-1 tobacco suspension, which was being subcultured every 7 days, was subcultured to fresh medium by adding 2 ml of the NT-1 culture or 1 ml of packed cells into 40 ml NT-1 B media. The subcultured suspension was maintained in the dark at 25±1° C. on a shaker at 125 rpm.
(§2) A 50% glycerol stock of Agrobacterium tumefaciens [strain LBA4404] harboring a binary vector of interest was used to initiate a liquid overnight culture by adding 20, 100, or 500 μl to 30 ml YEP liquid (10 g/L yeast extract, 10 g/L Peptone, 5 g/L NaCl, 0-10 g/L Sucrose) containing 50-100 mg/L spectinomycin. The bacterial culture was incubated in the dark at 28° C. in an incubator shaker at 150-250 rpm until the OD600 was 1.5+0.2. This took approximately 18-20 hrs.
(§3) For each vector tested, 20-70 mL of 4-day old suspension cells were transferred into a sterile vessel, to which 500-1750 μl of Agrobacterium suspension at the proper OD was added. To ensure a uniform mixture was achieved, the cells were pipetted up and down 5 times with a 10 ml wide-bore pipet. The uniform suspension was then drawn up into a 25 ml barrel of a repeat pipetter and 250 μl of the suspension was dispensed per well into 24-well plates, continuing until the suspension was exhausted. The well plates were wrapped in parafilm and cultured in the dark at 25±1° C. without shaking for a 3 day co-cultivation.
Following the co-cultivation, all excess liquid was removed from the individual wells with a 1 mL pipet tip, and remaining cells were resuspended in 1 ml NTC liquid (NT-1 B medium containing 500 mg/L carbenicillin, added after autoclaving). The contents of an individual well were dispersed across the entire surface of 100×25 mm selection plates using disposable transfer pipets. Selection media consisted of NTC media solidified with 8 g/l TC agar supplemented with 7.5 to 15 mg/L bialaphos or technical grade glufosinate ammonium, added after autoclaving. All selection plates, left unwrapped, were maintained in the dark at 28° C.
Putative transformants appeared as small clusters of callus on a background of dead, non-transformed cells. Calli were isolated approximately 2-6 weeks post-transformation. Each callus isolate was transferred to its own 60×20 mm plate containing the same selection medium and allowed to grow for approximately 2 weeks before being submitted for analysis.

[2] = tested on: NT-1 tobacco suspension cells treated with PAT (pDAB3779); assay: NT-1 tobacco cell transformation, selection on bialaphos; type: cell-based; conditions: % of selection plates with at least one PCR positive isolate
Method: as §1, §2
as §3, with “The well plates were wrapped in parafilm and cultured in the dark at 25±1° C. without shaking for a 3 day co-cultivation.” left out

SMILES: C[C@H](NC(=O)[C@H](C)NC(=O)[C@@H](N)CCP(C)(=O)O)C(=O)O [Bialaphos]
- Transformation frequency (% of selection plates producing at least one callus) after coding region PCR ([1]; 7.5 mg/L selection agent): 38.9%
- Transformation Frequency on 10 mg/L Bialaphos following PCR Verification [1]: 79%
- Transformation Frequency on 10 mg/L Bialaphos following PCR Verification ([1]; listed as bialaphos): 79%
- Transformation frequency (% of selection plates producing at least one callus) after coding region PCR ([1]; 10 mg/L selection agent): 44.4%
- Transformation frequency (% of selection plates producing at least one callus) after coding region PCR ([1]; 12.5 mg/L selection agent): 38.9%
- Transformation frequency (% of selection plates producing at least one callus) after coding region PCR ([1]; 15 mg/L selection agent): 22.2%
- Transformation Frequency on 10 mg/L Bialaphos following PCR Verification [2]: 100%
- Transformation Frequency on 10 mg/L Bialaphos following PCR Verification ([2]; listed as bialaphos): 100%
